Patent US11773078B2, “Furin inhibitors” (Glaxosmithkline Intellectual Property Development Limited, priority 2018, dated 2023)
Structures can show the parent of a compound that is named as a salt.

Legend:
[1] = tested on: epithelial sodium channel (ENaC); test: Transepithelial Electrical Resistance (TEER) assay, primary CF delF508 or non-CF HBE cells (FIG. 6-9); assay type: cell-based, human
Experimental: (§1) Primary cultures of CF delF508 or non-CF HBE cells are seeded onto permeable filter supports and grown for 12-14 days for a significant RTE to be measured for TEER assays.
(§2) When the ENaC is active under basal conditions (at least in part due to protease cleavage inside the cell or at the apical membrane), there is a finite RTE that is affected by the Na+ current flowing through ENaC heterotrimers (αβγ or δβγ).

[2] = molecular target: T1, Furin (108-574-Tev-Flag-His) enzyme (Homo sapiens, UniProt P09958); test: Furin enzyme assay; assay type: biochemical
T1 construct: Furin (108-574-Tev-Flag-His) enzyme was expressed and purified from CHO cells; TEV cleavage site (C); FLAG (C); His (C); made in house; host or cells: CHO cells
Method in brief: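 Compounds ran as 11-point threefold dilutions (0.00017–10 μM final) against 40 pM furin, purified from CHO cells, for 2 h at room temperature. Buffer: 100 mM HEPES pH7.5 with 1 mM CaCl2 and 0.005% Triton X-100. Envision readout. Four-parameter curve gives pXC50.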

[3] = molecular target: T2, furin (endogenous protease) in U20S cells (Homo sapiens, UniProt P09958); test: Furin cell-based assay (image-based, Golgi-targeted GFP with BMP10 furin/PCSK cleavage site); settings: 24-hour incubation, read-out: furin golgi cell pXC50 (converted);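 note: Read-out is mean GFP fluorescence of Golgi puncta per cell by high-content imaging, retained when furin inhibited, over an eleven-point 0.00017–10 µM series, four-parameter fit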
T2 construct: the endogenous protease cleaves GFP; endogenous in cells; host or cells: U2OS cells transduced with a BacMam reporter

[4] = tested on: hydroxyproline (a specific marker for collagen) in mouse lung; test: Bleomycin induced lung fibrosis model: hydroxyproline assay; assay type: in vivo; settings: relative to levels induced by Bleomycin in vehicle treated animals, *p < 0.05
Experimental: (§3) Preclinical pulmonary fibrosis can be induced by single instillation of Bleomycin to the mouse lung. A 15-day Bleomycin protocol was developed to evaluate compounds of the invention in vivo for their ability to inhibit TGFβ secretion and collagen deposition in the mouse lung. On the day before Bleomycin instillation, compounds were administrated to mice based on the appropriate route and frequency. On the study initiation day, under Ketamine (80 mg/kg) and Xylazine (10 mg/kg) anesthesia, all the animals were cannulated oro-tracheally and 50 μL of normal saline (Sham control) or 0.03 U Bleomycin in 50 μL saline (all groups except sham control group) was delivered into the trachea. Compounds were dosed daily until the end of study on Day 15. On termination day, animals were euthanized using CO2 inhalation. The right lung was collected, washed in normal saline, weighed, flash frozen in liquid nitrogen and stored at −80° C. for hydroxyproline (a specific marker for collagen) and TGFβ assays.
(§4) Flash frozen whole right lung tissues were homogenized in 500 μL of RIPA buffer containing PMSF and protease inhibitor cocktail using zirconium oxide bead based homogenizer (Bullet blender Gold, NextAdvance, Germany). Briefly, tissues were spun in the homogenizer at 4° C. for three cycles of 10 minutes each at 1000 g. A complete uniform tissue mixture was obtained using this procedure. The homogenate volume was made up to 1.5 mL by adding 1 mL of RIPA buffer containing PMSF and protease inhibitor cocktail to 500 μL of homogenate. The homogenate was stored as aliquots of 100-500 μL each at −80° C.
Acid hydrolysis: 500 μL of the homogenized lung parenchyma was transferred to glass vials, and an equal volume of 12N HCl was added (final concentration of HCl: 6N). The vials were purged with nitrogen gas, sealed and incubated overnight (16 h) under anoxic conditions at 110° C.
Post incubation procedures: 35 μL of the sample from each tube or standard (prepared by serial dilution of hydroxyproline stock solution) was added onto a 96 well plate and the assay was performed as per the kit protocol (Quickzyme Biosciences: Cat #: QZBHYPR05). After the final color development, absorbance was measured by colorimetric analysis at 570 nm (using Thermoscan spectrum (Plate Reader) and results were recorded. Standard curve (linear graph) was generated by using hydroxyproline standards provided in the Quickzyme kit.

[5] = tested on: TGFβ in mouse lung; test: Bleomycin induced lung fibrosis model: TGFβ assay; assay type: in vivo; settings: relative to levels induced by Bleomycin in vehicle treated animals, *p < 0.05
Experimental: as §3, §4
Lung tissue homogenates (500 μL) were spun at 13,000 rpm for 20 minutes at 4° C. and supernatants were collected for TGFβ estimation. The assay was performed according to the manufacturer's manual (R&D systems: Cat #SMB100B). Briefly, the lung homogenates were activated by acid activation followed by neutralization to convert latent TGFβ to active TGFβ and the total TGFβ levels in supernatants were measured. Total protein levels in the lung supernatant were also determined.

[6] = tested on: epithelial sodium channel (ENaC); test: TEER assay, chronic or acute treatment, Non-CF Polarized Human Lobar Bronchial Epithelial Cells; assay type: cell-based; design: RTE Before Amil / RTE After Amil: unit not given here; settings: for Delta RTE / RTE After Amil / RTE Before Amil: chronic treatment (overnight)
Experimental: as §1, §2

[7] = tested on: epithelial sodium channel (ENaC); test: Transepithelial fluid transport assay, CF delF508 HBE cells; assay type: cell-based, human
Experimental: Primary cultures of CF delF508 or non-CF HBE cells are seeded onto permeable filter supports and grown for 7 days for a significant RTE to be measured. Then, apical media is removed to initiate air-fluid interface (AFI) culture. When the cell monolayers are tight to fluid leak from basolateral to apical side of the cell monolayer, they are ready for fluid transport (fluid absorption) measurements.
Two methods are being used to challenge cell monolayers in AFI culture where there is no media in the apical side:
(1) A chronic overnight treatment was performed by adding the protease inhibitors (ENaC inhibitors) into the basolateral media. Then, […] of cell culture media is added to the apical side of each monolayer and fluid absorption measured (by the loss of volume in mls).
(2) An acute treatment was performed when the protease inhibitors (ENaC inhibitors) are added in the apical media in that […] volume (or media only or DMSO equivalents as controls).
In each case, fluid absorption is occurring against a 5× hydrostatic pressure gradient (i.e., there are 500 ml on the basolateral side and […] on the apical side).
When the ENaC is active under basal conditions (at least in part due to protease cleavage inside the cell or at the apical membrane), the absorptive Na+ current flowing through ENaC heterotrimers (αβγ or δβγ) creates an osmotic driving force for fluid absorption.

[8] = 10 mg/kg, Intra-peritoneal, Twice daily

T1 sequence (P09958 108-574): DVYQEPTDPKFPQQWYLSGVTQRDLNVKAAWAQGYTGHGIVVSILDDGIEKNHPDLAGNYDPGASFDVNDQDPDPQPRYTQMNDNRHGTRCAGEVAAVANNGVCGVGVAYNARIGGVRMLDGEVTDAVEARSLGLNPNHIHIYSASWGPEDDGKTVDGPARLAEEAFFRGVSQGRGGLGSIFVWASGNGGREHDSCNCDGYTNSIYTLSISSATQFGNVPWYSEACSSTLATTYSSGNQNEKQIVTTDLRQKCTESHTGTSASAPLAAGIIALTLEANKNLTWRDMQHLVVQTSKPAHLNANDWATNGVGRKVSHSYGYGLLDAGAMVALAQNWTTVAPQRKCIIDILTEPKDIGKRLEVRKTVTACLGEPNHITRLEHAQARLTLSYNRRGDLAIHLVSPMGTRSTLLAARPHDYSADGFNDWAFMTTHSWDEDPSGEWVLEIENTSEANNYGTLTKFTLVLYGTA
T2 sequence (P09958 108-794): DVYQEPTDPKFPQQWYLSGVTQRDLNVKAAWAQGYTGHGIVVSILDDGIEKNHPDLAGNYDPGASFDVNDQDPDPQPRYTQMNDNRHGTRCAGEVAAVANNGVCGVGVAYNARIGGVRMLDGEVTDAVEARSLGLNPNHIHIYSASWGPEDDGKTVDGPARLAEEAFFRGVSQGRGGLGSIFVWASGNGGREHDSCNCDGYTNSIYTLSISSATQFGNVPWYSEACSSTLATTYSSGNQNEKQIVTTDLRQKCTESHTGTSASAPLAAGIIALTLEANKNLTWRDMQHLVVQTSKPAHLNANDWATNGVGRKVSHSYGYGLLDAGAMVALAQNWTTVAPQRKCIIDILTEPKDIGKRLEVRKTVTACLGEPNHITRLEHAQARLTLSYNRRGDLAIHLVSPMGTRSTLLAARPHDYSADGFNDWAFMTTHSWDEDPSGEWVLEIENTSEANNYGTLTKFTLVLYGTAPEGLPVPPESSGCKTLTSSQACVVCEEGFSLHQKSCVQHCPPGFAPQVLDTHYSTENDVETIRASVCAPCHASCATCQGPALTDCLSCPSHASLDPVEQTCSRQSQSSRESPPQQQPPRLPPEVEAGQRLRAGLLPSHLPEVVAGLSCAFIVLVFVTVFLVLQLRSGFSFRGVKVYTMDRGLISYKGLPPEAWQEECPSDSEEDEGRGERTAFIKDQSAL

## CN(C)C(=O)COC(=O)Cc1ccc(OC(=O)c2ccc(NC(=N)N)cc2)cc1 [Camostat mesylate, reference compound]
[1]; compared to Example 11, only mid-μM concentrations partially effective, FIG. 8 and FIG. 9
  inhibitory effect in TEER assay: only partially inhibitory and modestly Inhibitory

## CC(=O)NCC1CCN(Cc2cc(Oc3ccc(N4CCN(CCC(=O)O)CC4)nc3)nc(-c3cc(Cl)cc(Cl)c3)c2)CC1 [Example 11, 3-(4-(5-((4-((4-(Acetamidomethyl)piperidin-1-yl)methyl)-6-(3,5-dichlorophenyl)pyridin-2-yl)oxy)pyridin-2-yl)piperazin-1-yl)propanoic acid, 4 hydrochloride]
[2]
  furin enzyme pIC50: 9.6
[3]
  EC50: 25.1 nM
[4]; [8]
  % inhibition of hydroxyproline in lung: 67* %
[5]; [8]
  % inhibition of total TGFβ in lung: 69* %
[1]; compared to 'Media only' and 'DMSO (LTA)' controls, FIG. 6, *p<0.05
  amiloride-induced increase in RTE: concentration-dependent reduction in amiloride-induced increase in RTE
[1]; compared to Camostat at the same concentration and Aprotinin at ˜10 μM, FIG. 7, overlap in CRCs only at 3 μM
  effectiveness on RTE compared to industry standards: more effective
[6]; acute treatment, up to 3 μM
  acute effect on RTE: equivalent acute effect to Aprotinin and a stronger effect than Camostat
  inhibition of amiloride-sensitive RTE delta (remaining ENaC activity): inhibited amiloride-sensitive RTE delta modestly
[6]; chronic overnight treatment, 3 μM, P<0.05
  effect on the amiloride-sensitive RTE delta: equivalent inhibitory effect
[6]; 0.1 μM
  Delta RTE: +181 ± 16
  RTE After Amil: 697 ± 57
  RTE Before Amil: 517 ± 42
[6]; 0.3 μM
  Delta RTE: +122 ± 6
  RTE After Amil: 548 ± 13
  RTE Before Amil: 426 ± 10
[6]; 1 μM
  Delta RTE: +133 ± 14
  RTE After Amil: 605 ± 49
  RTE Before Amil: 472 ± 38
[6]; 3 μM
  Delta RTE: +63 ± 7
  RTE After Amil: 390 ± 18
  RTE Before Amil: 326 ± 16
[7]; 1 and 3 μM
  attenuation of rate of fluid lost: 50%
  attenuation of total fluid volume lost: 50%
[7]; compared to 'DMSO Equivalent' controls, FIG. 10 and FIG. 11
  absorptive fluid transport: concentration-dependent attenuation of absorptive fluid transport

## CS(=O)(=O)CCCN1CCN(c2ncc(Oc3cc(CN4CCC(CC(=O)O)CC4)cc(-c4cc(Cl)cc(Cl)c4)n3)cn2)CC1 [Example 242, 2-(1-((2-(3,5-Dichlorophenyl)-6-((2-(4-(3-(methylsulfonyl)propyl)piperazin-1-yl)pyrimidin-5-yl)oxy)pyridin-4-yl)methyl)piperidin-4-yl)acetic acid]
[2]
  furin enzyme pIC50: 8.6
[3]
  EC50: 25.1 nM
[4]; 10 mg/kg, Oral, Once daily
  % inhibition of hydroxyproline in lung: −1%
[5]; 10 mg/kg, Oral, Once daily
  % inhibition of total TGFβ in lung: 40* %

## CC(=O)NCC1CCN(Cc2cc(Oc3cnc(N4CCN(CCC(=O)O)CC4)nc3)nc(-c3cc(Cl)cc(Cl)c3)c2)CC1 [Example 263, 3-(4-(5-((4-((4-(acetamidomethyl)piperidin-1-yl)methyl)-6-(3,5-dichlorophenyl)pyridin-2-yl)oxy)pyrimidin-2-yl)piperazin-1-yl)propanoic acid]
[2]
  furin enzyme pIC50: 9.8
[3]
  EC50: 10 nM
[4]; [8]
  % inhibition of hydroxyproline in lung: 60* %
[5]; [8]
  % inhibition of total TGFβ in lung: 86* %

## C[C@@H](O)CN1CCN(c2ncc(Oc3cc(CN4CCC(CC(=O)O)CC4)cc(-c4cc(Cl)cc(Cl)c4)n3)cn2)CC1 [Example 298, (R)-2-(1-((2-(3,5-Dichlorophenyl)-6-((2-(4-(2-hydroxypropyl)piperazin-1-yl)pyrimidin-5-yl)oxy)pyridin-4-yl)methyl)piperidin-4-yl)acetic acid]
[2]
  furin enzyme pIC50: 9.2
[3]
  EC50: 20 nM
[4]; 10 mg/kg, Oral, Once daily
  % inhibition of hydroxyproline in lung: 16* %
[5]; 10 mg/kg, Oral, Once daily
  % inhibition of total TGFβ in lung: 23* %

## O=C(O)CC1CCN(Cc2cc(Oc3cnc(N4CCN(CCO)CC4)nc3)nc(-c3cc(Cl)cc(Cl)c3)c2)CC1 [Example 306, 2-(1-((2-(3,5-dichlorophenyl)-6-((2-(4-(2-hydroxyethyl)piperazin-1-yl)pyrimidin-5-yl)oxy)pyridin-4-yl)methyl)piperidin-4-yl)acetic acid]
[2]
  furin enzyme pIC50: 8.9
[3]
  EC50: 25.1 nM
[4]; 10 mg/kg, Oral, Once daily
  % inhibition of hydroxyproline in lung: 11%
[5]; 10 mg/kg, Oral, Once daily
  % inhibition of total TGFβ in lung: 31* %

## O=C(O)CC1CCN(Cc2cc(Oc3cnc(N4CCN5CCC4C5)nc3)nc(-c3cc(Cl)cc(Cl)c3)c2)CC1 (stereo not drawn) [Example 334, 2-(1-((2-((2-(1,4-Diazabicyclo[3.2.1]octan-4-yl)pyrimidin-5-yl)oxy)-6-(3,5-dichlorophenyl)pyridin-4-yl)methyl)piperidin-4-yl)acetic acid, 4 hydrochloride]
[2]
  furin enzyme pIC50: 8.9
[3]
  EC50: 20 nM
[4]; 30 mg/kg, Oral, Once daily
  % inhibition of hydroxyproline in lung: 34* %
[5]; 30 mg/kg, Oral, Once daily
  % inhibition of total TGFβ in lung: 36* %

## CN1CCN(c2cnc(Oc3cc(CN4CCC(CC(=O)O)CC4)cc(-c4cc(Cl)cc(Cl)c4)n3)cn2)CC1 [Example 339, 2-(1-((2-(3,5-Dichlorophenyl)-6-((5-(4-methylpiperazin-1-yl)pyrazin-2-yl)oxy)pyridin-4-yl)methyl)piperidin-4-yl)acetic acid]
[2]
  furin enzyme pIC50: 8.7
[3]
  EC50: 50.1 nM
[4]; 10 mg/kg, Oral, Once daily
  % inhibition of hydroxyproline in lung: 4%
[5]; 10 mg/kg, Oral, Once daily
  % inhibition of total TGFβ in lung: 22%

## CN1CCCN(c2cnc(Oc3cc(CN4CCC(CC(=O)O)CC4)cc(-c4cc(Cl)cc(Cl)c4)n3)cn2)CC1 [Example 340, 2-(1-((2-(3,5-dichlorophenyl)-6-((5-(4-methyl-1,4-diazepan-1-yl)pyrazin-2-yl)oxy)pyridin-4-yl)methyl)piperidin-4-yl)acetic acid]
[2]
  furin enzyme pIC50: 8.8
[3]
  EC50: 20 nM
[4]; 30 mg/kg, Oral, Once daily
  % inhibition of hydroxyproline in lung: 21* %
[5]; 30 mg/kg, Oral, Once daily
  % inhibition of total TGFβ in lung: 26* %

## CC(=O)NCC1CCN(Cc2cc(Oc3cnc(N4CCN(CCC(C)C(=O)O)CC4)nc3)nc(-c3cc(Cl)cc(Cl)c3)c2)CC1 (stereo not drawn) [Example 369, 4-(4-(5-((4-((4-(Acetamidomethyl)piperidin-1-yl)methyl)-6-(3,5-dichlorophenyl)pyridin-2-yl)oxy)pyrimidin-2-yl)piperazin-1-yl)-2-methylbutanoic acid, 4 hydrochloride]
[2]
  furin enzyme pIC50: 9.3
[3]
  EC50: 5.01 nM
[4]; 10 mg/kg, Oral, Once daily
  % inhibition of hydroxyproline in lung: 62* %
[5]; 10 mg/kg, Oral, Once daily
  % inhibition of total TGFβ in lung: 75* %
